Laboratory results published in patent US10512626B2, “Compositions for use in treating glioblastoma” (PELOTON THERAPEUTICS, INC., priority 2015, dated 2019).

biological target: T1, HIF-2α HIS TAG-PASB Domain (Homo sapiens, UniProt Q99814); assay: HIF-2α Scintillation Proximity Assay (SPA); assay type: binding; conditions: displacement of tritiated probe Compound 183
T1 construct: 100 nM HIF-2α HIS TAG-PASB Domain
Procedure: The total assay volume was about 100 μL in the following configuration: 2 μL compound in 100% DMSO, 88 μL buffer with protein and probe and 10 μL of SPA beads. […] The percent inhibition was determined and IC50 values were calculated using the Dotmatics system based on the following equation: % inhibition=[(high control−sample)/(high control−low control)]×100.

T1 sequence (Q99814 240-350 limits assumed): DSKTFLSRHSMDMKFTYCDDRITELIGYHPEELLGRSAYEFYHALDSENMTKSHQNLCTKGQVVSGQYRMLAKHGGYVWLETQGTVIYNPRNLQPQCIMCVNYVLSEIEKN

SMILES	IC50
CS(=O)(=O)c1ccc(O[C@H]2C[C@H](C#N)C2)c2c1[C@H](O)C(F)(F)[C@@H]2F [Compound 760]	< 50 nM
FC(F)COc1ccc(C(F)(F)F)c2c1C[C@H](F)[C@H]2F [Compound 697]	50 to 249 nM
CS(=O)(=O)c1ccc(Nc2cc(F)cc(C#N)c2)c2c1[C@H](O)C(F)(F)C2 [Compound 502]	> 1000 nM
O=S(=O)(c1ccc(O[C@H]2C[C@H](O)C2)c2c1[C@H](O)C(F)(F)C2)C(F)(F)F [Compound 644]	250 to 1000 nM

test system: VEGF concentration in culture medium of 786-O cells; assay: VEGF ELISA Assay; assay type: cell-based; conditions: Homo sapiens, 786-0
Procedure: Each concentration was plated in duplicate. About 20 hours later, medium was removed by suction and each well was supplied with 180 μL of growth medium. About 20 µl freshly-made 10× compound stocks were added to each well. […] The EC50 was calculated by GraphPad Prism using the dose-response-inhibition (four parameter) equation. The cell-seeded plate was then subjected to CellTiter-Glo luminescence cell viability assay (Promega) by adding 50 μL of Celltiter Glo reagent into each well and shaking the plate for 8 minutes at 550 rpm (Thermomixer R, Eppendorf) then the luminescence signal immediately read in a plate reader (3 second delay, 0.5 second/well integration time, Synergy 2 multi Detection Microplate reader).

SMILES	EC50
O=S(=O)(c1ccc(Oc2cc(F)cc(Cl)c2)c(Cl)c1CO)C(F)F [Compound 41]	250 to 1000 nM
CS(=O)(=O)c1ccc(Oc2cc(Cl)cc(C#N)c2)c2c1[C@H](O)C(F)(F)C2 [Compound 234]	50 to 249 nM
O=S(=O)(c1ccc(Oc2cc(F)cc(Cl)c2)c(C(F)F)c1)C(F)(F)F [Compound 124]	250 to 1000 nM
O=S(=O)(c1ccc(Oc2cc(F)cc(Cl)c2)c2c1C(O)CC2)C(F)F (stereo not shown) [Compound 17]	50 to 249 nM
N#Cc1cc(F)cc(Oc2ccc(S(=O)(=O)C(F)F)c3c2CC[C@H]3O)c1 [Compound 155]	50 to 249 nM
CS(=O)(=O)c1ccc(OC2CC(C#N)C2)c2c1[C@H](O)C(F)(F)[C@@H]2F (stereo partly shown) [Compound 760]	50 to 249 nM
N#Cc1ccc(Oc2cc(F)cc(F)c2)c2c1[C@H](O)C(F)(F)C2 [Compound 67]	50 to 249 nM
O=S(=O)(c1ccc(Oc2cc(F)cc(Cl)c2)c2c1[C@H](O)CC2)C(F)F [Compound 1]	250 to 1000 nM
N#Cc1cc(F)cc(Oc2ccc(S(=O)(=O)C(F)F)c3c2CCC3O)c1 (stereo not shown) [Compound 78]	250 to 1000 nM

test system: 786-O-Hif-Luc cells (luciferase gene driven by multiple HIF responsive elements); assay: Luciferase Assay (HIF reporter); conditions: 24 h, read-out: Mean Luciferase EC50 (nM)
Procedure: A pool of infected cells were then selected against 2 μg/mL of puromycin (P8833, Sigma) for 10 days followed by limited dilution to select single clones.
Each concentration was tested in triplicate. After about 24 hours, luciferase activity was determined using ONE-Glo Luciferase Assay Reagent (E6110, Promega) following the manufacturer's recommended procedure. EC50 were calculated using Dotmatics software.

SMILES	EC50
O=S(=O)(c1ccc(Oc2cc(F)cc(Cl)c2)c(Cl)c1CO)C(F)F [Compound 41]	250 to 1000 nM
CS(=O)(=O)c1ccc(Oc2cc(Cl)cc(C#N)c2)c2c1[C@H](O)C(F)(F)C2 [Compound 234]	< 50 nM
CNS(=O)(=O)c1ccc(Oc2cc(F)cc(F)c2)c2c1[C@H](O)C(F)(F)C2 [Compound 251]	50 to 249 nM
[2H]C([2H])([2H])S(=O)(=O)c1ccc(Oc2cc(F)cc(C#N)c2)c2c1[C@]([2H])(O)C(F)(F)C2 [Compound 229]	< 50 nM
N#Cc1cccc(Oc2ccc(S(=O)(=O)C(F)F)c3c2CC[C@H]3O)c1 [Compound 156]	250 to 1000 nM
O=S(=O)(c1ccc(Oc2cc(F)cc(Cl)c2)c(C(F)F)c1)C(F)(F)F [Compound 124]	250 to 1000 nM
CS(=O)(=O)c1ccc(Oc2cc(F)cc(C#N)c2)c2c1[C@H](O)[C@H](F)C2 [Compound 231]	< 50 nM
NS(=O)(=O)c1ccc(Oc2cc(F)cc(F)c2)c2c1[C@H](O)C(F)(F)C2 [Compound 256]	< 50 nM
CNS(=O)(=O)c1ccc(Oc2cc(F)cc(C#N)c2)c2c1[C@H](O)C(F)(F)C2 [Compound 254]	50 to 249 nM
CS(=O)(=O)c1ccc(Oc2cc(F)cc(C#N)c2)c2c1[C@H](N)C(F)(F)C2 [Compound 165]	50 to 249 nM
N#Cc1cc(F)cc(Oc2ccc(S(N)(=O)=O)c3c2CC(F)(F)[C@H]3O)c1 [Compound 252]	50 to 249 nM
N#Cc1cc(F)cc(Oc2ccc(S(=O)(=O)C(F)(F)F)c3c2CC(F)(F)[C@H]3N)c1 [Compound 290]	50 to 249 nM
CCS(=O)(=O)c1ccc(Oc2cc(F)cc(C#N)c2)c2c1[C@H](O)C(F)(F)C2 [Compound 206]	50 to 249 nM
CS(=O)(=O)c1ccc(Oc2cc(F)cc(C#N)c2)c2c1[C@H](O)[C@H](F)[C@@H]2F [Compound 289, 3-[(1S,2S,3R)-2,3-difluoro-1-hydroxy-7-methylsulfonyl-indan-4-yl]oxy-5-fluoro-benzonitrile]	< 50 nM
N#Cc1cc(F)cc(Oc2ccc(S(=O)(=O)C(F)F)c3c2CC[C@H]3O)c1 [Compound 155]	50 to 249 nM
CS(=O)(=O)c1ccc(Oc2cc(F)cc(C#N)c2)c2c1[C@@H](O)C(F)(F)C2 [Compound 226]	> 1000 nM
C[C@H]1C[C@@H](O)c2c(S(=O)(=O)C(F)F)ccc(Oc3cc(F)cc(Cl)c3)c21 [Compound 7a]	250 to 1000 nM
N#Cc1cc(F)cc(Oc2ccc(S(N)(=O)=O)c3c2[C@@H](F)C(F)(F)[C@H]3O)c1 [Compound 338]	< 50 nM
[2H][C@]1(O)c2c(S(C)(=O)=O)ccc(Oc3cc(F)cc(C#N)c3)c2CC1(F)F [Compound 247]	< 50 nM
N#Cc1cc(Cl)cc(Oc2ccc(S(=O)(=O)CF)c3c2CC(F)(F)[C@H]3O)c1 [Compound 167]	< 50 nM
N#Cc1cc(F)cc(Oc2ccc(S(=O)(=O)C(F)(F)F)c3c2CC[C@H]3O)c1 [Compound 57]	50 to 249 nM
N#Cc1cc(F)cc(Oc2ccc(S(N)(=O)=O)c3c2[C@H](F)C(F)(F)[C@H]3O)c1 [Compound 339]	250 to 1000 nM
CS(=O)(=O)c1ccc(Oc2cc(F)cc(C#N)c2)c2c1C(O)C(F)C2 (stereo not shown) [Compound 232]	< 50 nM
CS(=O)(=O)c1ccc(Oc2cc(F)cc(C#N)c2)c2c1[C@H](O)[C@@H](F)C2 [Compound 271]	250 to 1000 nM
N#Cc1cncc(Oc2ccc(S(=O)(=O)C(F)(F)F)c3c2CC(F)(F)[C@H]3O)c1 [Compound 235]	< 50 nM
CS(=O)(=O)c1ccc(Oc2cc(F)cc(C#N)c2)c2c1C(O)C(F)(F)C2 (stereo not shown) [Compound 223]	50 to 249 nM
CS(=O)(=O)c1ccc(Oc2cc(F)cc(C#N)c2)c2c1[C@H](O)C(F)(F)C2 [Compound 163, (S)-3-((2,2-Difluoro-1-hydroxy-7-(methylsulfonyl)-2,3-dihydro-1H-inden-4-yl)oxy)-5-fluorobenzonitrile]	< 50 nM

same assay, conditions: 24 h, read-out: Mean Luciferase EC50 (nM), 786-O-Hif-Luc cells, about 24 hours

SMILES	EC50
CS(=O)(=O)c1ccc(OC2CC(C#N)C2)c2c1[C@H](O)C(F)(F)[C@@H]2F (stereo partly shown) [Compound 760]	50 to 249 nM
FC(F)COc1ccc(C(F)(F)F)c2c1C[C@H](F)[C@H]2F [Compound 697]	50 to 249 nM
O=S(=O)(c1ccc(O[C@H]2C[C@H](O)C2)c2c1[C@H](O)C(F)(F)C2)C(F)(F)F [Compound 644]	250 to 1000 nM
